One test addresses human σ1 receptor (Homo sapiens, UniProt Q99720). Nature of the test: Human σ1 receptor radioligand assay ([3H](+)-pentazocine, transfected HEK-293 membranes). The test is classed as binding. Set-up: μ and σ1 dual binding: key to the marks not given beside the values. The following applies: one class symbol for both Ki-σ1 (human σ1 receptor, A1) and Ki-μ (human μ-opioid receptor, A2). The method, then: Human σ1 Receptor Radioligand Assay
To investigate binding properties of test compounds to human σ1 receptor, transfected HEK-293 membranes and [^3H](+)-pentazocine (Perkin Elmer, NET-1056), as the radioligand, were used. The assay was carried out with 7 μg of membrane suspension, 5 nM of [^3H](+)-pentazocine in either absence or presence of either buffer or 10 μM Haloperidol for total and non-specific binding, respectively. Binding buffer contained Tris-HCl 50 mM at pH 8. Plates were incubated at 37° C. for 120 minutes. After the incubation period, the reaction mix was then transferred to MultiScreen HTS, FC plates (Millipore), filtered and plates were washed 3 times with ice-cold 10 mM Tris-HCL (pH7.4). Filters were dried and counted at approximately 40% efficiency in a MicroBeta scintillation counter (Perkin-Elmer) using EcoScint liquid scintillation cocktail
Chain of human σ1 receptor (Q99720 whole entry): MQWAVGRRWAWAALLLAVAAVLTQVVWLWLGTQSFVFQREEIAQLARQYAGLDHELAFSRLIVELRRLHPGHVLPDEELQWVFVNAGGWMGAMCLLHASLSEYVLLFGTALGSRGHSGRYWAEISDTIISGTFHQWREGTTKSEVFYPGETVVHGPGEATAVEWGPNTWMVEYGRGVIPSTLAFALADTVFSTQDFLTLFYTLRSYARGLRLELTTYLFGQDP
Take `CC[C@]1(N2CCN(CCc3ccccc3)CC2)CCO[C@@H](C)C1` (stereo in doubt) [Example 46, 1-(4-ethyl-2-methyltetrahydro-2H-pyran-4-yl)-4-phenethylpiperazine]: the “μ and σ1 dual binding” value is reported as “++”.

For the compound `CC[C@@]1(N2CCN(CCc3ccccc3)CC2)CCO[C@@H](C)C1` (stereo in doubt) [Example 47, 1-(4-ethyl-2-methyltetrahydro-2H-pyran-4-yl)-4-phenethylpiperazine], the “μ and σ1 dual binding” value is recorded as “++”. The same measure, in the same setting: in the case of `CC[C@@]1(N2CCN(Cc3ccc(C#N)cc3)CC2)CCO[C@@H](C)C1` (stereo in doubt) [Example 186, 4-((4-(4-ethyl-2-methyltetrahydro-2H-pyran-4-yl)piperazin-1-yl)methyl)benzonitrile] it was “++”; in that of `CC1(C)C[C@@](C(=O)c2ccccn2)(N2CCN(Cc3ccccc3)CC2)CCO1` [Example 2, (S)-(4-(4-benzylpiperazin-1-yl)-2,2-dimethyltetrahydro-2H-pyran-4-yl)(pyridin-2-yl)methanone], “++”.

For `O=C(c1ccccn1)C1(N2CCN(Cc3ccccc3)CC2)CCOCC1` [Example 8, (4-(4-benzylpiperazin-1-yl)tetrahydro-2H-pyran-4-yl)(pyridin-2-yl)methanone], the “μ and σ1 dual binding” value is recorded as “++”. On the same count and under the same terms, as for `CC1(C)CC(C(=O)c2ccccc2)(N2CCN(Cc3ccccc3)CC2)CCO1` (centres unmarked) [Example 9, (4-(4-benzylpiperazin-1-yl)-2,2-dimethyltetrahydro-2H-pyran-4-yl)(phenyl)methanone], the entry is “++”. Take `CC1(C)CC(C(=O)c2cccnc2)(N2CCN(Cc3ccccc3)CC2)CCO1` (centres unmarked) [Example 10, (4-(4-benzylpiperazin-1-yl)-2,2-dimethyltetrahydro-2H-pyran-4-yl)(pyridin-3-yl)methanone]: the “μ and σ1 dual binding” value is reported as “++”. As to `CC(C)CN1CCN(C2(C(=O)c3ccccc3)CCOC(C)(C)C2)CC1` (centres unmarked) [Example 11, (4-(4-isobutylpiperazin-1-yl)-2,2-dimethyltetrahydro-2H-pyran-4-yl)(phenyl)methanone], the “μ and σ1 dual binding” value is “++”.

Regarding `CC(C)OCCN1CCN(C2(C(=O)c3ccccc3)CCOC(C)(C)C2)CC1` (centres unmarked) [Example 13, (4-(4-(2-isopropoxyethyl)piperazin-1-yl)-2,2-dimethyltetrahydro-2H-pyran-4-yl)(phenyl)methanone], the “μ and σ1 dual binding” value was “++”. Still for that read-out and setting: in the case of `CC1(C)CC(C(=O)c2ccccn2)(N2CCN(Cc3ccccc3)CC2)CC(C)(C)O1` [Example 17, (4-(4-benzylpiperazin-1-yl)-2,2,6,6-tetramethyltetrahydro-2H-pyran-4-yl)(pyridin-2-yl)methanone] it was “++”.

With `CN(Cc1ccccc1)C1CN(C2(C(=O)c3ccccn3)CCOC(C)(C)C2)C1` (centres unmarked) [Example 19, (4-(3-(benzyl(methyl)amino)azetidin-1-yl)-2,2-dimethyltetrahydro-2H-pyran-4-yl)(pyridin-2-yl)methanone], the “μ and σ1 dual binding” value is given as “++”. As for `O=C(c1ccccn1)C1(N2CCN(Cc3ccccc3)CC2)CCOC1` (centres unmarked) [Example 20, (3-(4-benzylpiperazin-1-yl)tetrahydrofuran-3-yl)(pyridin-2-yl)methanone], the “μ and σ1 dual binding” value is given as “++”.

Consider `O=C(c1ccccn1)C1(C2CCN(Cc3ccccc3)CC2)CCOCC1` [Example 21, (4-(1-benzylpiperidin-4-yl)tetrahydro-2H-pyran-4-yl)(pyridin-2-yl)methanone], for which the “μ and σ1 dual binding” value was “++”.

On to `C[C@@H]1C[C@@](C(=O)c2ccccn2)(N2CCN(Cc3ccccc3)CC2)CCO1` [Example 28], for which the “μ and σ1 dual binding” value is listed as “++”. Turning to `c1ccc(CN2CCN(C3(c4ccccc4)CCOCC3)CC2)cc1` [Example 30, 1-benzyl-4-(4-phenyltetrahydro-2H-pyran-4-yl)piperazine], the “μ and σ1 dual binding” value is “++”. Take `CCC1(N2CCN(Cc3ccccc3)CC2)CCOCC1` [Example 31, 1-benzyl-4-(4-ethyltetrahydro-2H-pyran-4yl)piperazine]: the “μ and σ1 dual binding” value was “++”.

Staying with this test, now noted: one class symbol for both Ki-σ1 (human σ1 receptor, A1) and Ki-μ (human μ-opioid receptor, A2); read-out: μ and σ1 dual binding.
Turning to `CC[C@]1(N2CCN(Cc3ccc(C#N)cc3)CC2)CCO[C@@H](C)C1` (stereo in doubt) [Example 187, 4-((4-(4-ethyl-2-methyltetrahydro-2H-pyran-4-yl)piperazin-1-yl)methyl)benzonitrile], the Ki was more than 500 nM. The same measure, in the same setting: as for `CC(C)CN1CCN(C2(C(=O)c3ccccn3)CCOC(C)(C)C2)CC1` (centres unmarked) [Example 14, (4-(4-isobutylpiperazin-1-yl)-2,2-dimethyltetrahydro-2H-pyran-4-yl)(pyridin-2-yl)methanone], the figure is more than 500 nM; as for `CC(C)OCCN(C)C1CN(C2(C(=O)c3ccccn3)CCOC(C)(C)C2)C1` (centres unmarked) [Example 23, (4-(3-((2-isopropoxyethyl)(methyl)amino)azetidin-1-yl)-2,2-dimethyltetrahydro-2H-pyran-4-yl)(pyridin-2-yl)methanone], more than 500 nM; as for `C[C@@H]1C[C@@](C(=O)c2ccccn2)(N2CCN(Cc3ccccc3)CC2)CCO1` [Example 25], more than 500 nM. Consider `C[C@@H]1C[C@@](C(=O)c2ccccn2)(N2CCN(CCc3ccccc3)CC2)CCO1` [Example 26], for which the Ki was less than 500 nM. Consider `C[C@H]1C[C@](C(=O)c2ccccn2)(N2CCN(Cc3ccccc3)CC2)CCO1` [Example 27], for which the Ki was less than 500 nM.

The same test, now with this note: μ and σ1 dual binding, one class symbol for both Ki-σ1 (human σ1 receptor, A1) and Ki-μ (human μ-opioid receptor, A2).
Take `CC1(C)CC(C(=O)c2ccccn2)(N2CCN(Cc3ccccc3)CC2)CCO1` (centres unmarked) [Example 1, (4-(4-benzylpiperazin-1-yl)-2,2-dimethyltetrahydro-2H-pyran-4-yl)(pyridin-2-yl)methanone]: the Ki is less than 100 nM. `CC1(C)C[C@](C(=O)c2ccccn2)(N2CCN(Cc3ccccc3)CC2)CCO1` [Example 3, (R)-(4-(4-benzylpiperazin-1-yl)-2,2-dimethyltetrahydro-2H-pyran-4-yl)(pyridin-2-yl)methanone] had a Ki of less than 100 nM. Compound `O=C(c1ccccc1)C1(N2CCN(Cc3ccccc3)CC2)CCOC2(CCCC2)C1` (centres unmarked) [Example 4, (9-(4-benzylpiperazin-1-yl)-6-oxaspiro[4.5]decan-9-yl)(phenyl)methanone] came in with a Ki of less than 100 nM. Turning to `O=C(c1cccc(C(F)(F)F)n1)C1(N2CCN(Cc3ccccc3)CC2)CCOC2(CCCC2)C1` (centres unmarked) [Example 6, (9-(4-benzylpiperazin-1-yl)-6-oxaspiro[4.5]decan-9-yl)(6-(trifluoromethyl)pyridin-2-yl)methanone], the Ki was less than 100 nM. Compound `CC(C)CN1CCN(C2(C(=O)c3ccccc3)CCOC3(CCCC3)C2)CC1` (centres unmarked) [Example 7, (9-(4-isobutylpiperazin-1-yl)-6-oxaspiro[4.5]decan-9-yl)(phenyl)methanone] had a Ki of less than 100 nM. Same read-out and setting: as for `CC(C)CCN1CCN(C2(C(=O)c3ccccc3)CCOC(C)(C)C2)CC1` (centres unmarked) [Example 12, (4-(4-isopentylpiperazin-1-yl)-2,2-dimethyltetrahydro-2H-pyran-4-yl)(phenyl)methanone], the figure is less than 500 nM; as for `CC1(C)CC(C(=O)c2cccc(C(F)(F)F)n2)(N2CCN(Cc3ccccc3)CC2)CCO1` (centres unmarked) [Example 15, (4-(4-benzylpiperazin-1-yl)-2,2-dimethyltetrahydro-2H-pyran-4-yl)(6-(trifluoromethyl)pyridin-2-yl)methanone], less than 100 nM; as for `CC(C)OCCN1CCN(C2(C(=O)c3cccc(C(F)(F)F)n3)CCOC(C)(C)C2)CC1` (centres unmarked) [Example 16, (4-(4-(2-isopropoxyethyl)piperazin-1-yl)-2,2-dimethyltetrahydro-2H-pyran-4-yl)(6-(trifluoromethyl)pyridin-2-yl)methanone], less than 500 nM. The compound `CC1(C)CC(C(=O)c2ccccn2)(N2CC3CN(Cc4ccccc4)CC3C2)CCO1` (centres unmarked) [Example 18, (4-(5-benzylhexahydropyrrolo[3,4-c]pyrrol-2(1H)-yl)-2,2-dimethyltetrahydro-2H-pyran-4-yl)(pyridin-2-yl)methanone] displayed a Ki of less than 500 nM. On to `CC1(C)CC(C(=O)c2ccccn2)(C2CCN(Cc3ccccc3)CC2)CCO1` (centres unmarked) [Example 22, (4-(1-benzylpiperidin-4-yl)-2,2-dimethyltetrahydro-2H-pyran-4-yl)(pyridin-2-yl)methanone], for which the Ki was less than 500 nM.

The compound `CC1(C)CC(C(=O)c2ccccn2)(N2CCCN(Cc3ccccc3)CC2)CCO1` (centres unmarked) [Example 24, (4-(4-benzyl-1,4-diazepan-1-yl)-2,2-dimethyltetrahydro-2H-pyran-4-yl)(pyridin-2-yl)methanone] came in with a Ki of less than 500 nM. For the compound `CCC1(N2CCN(Cc3ccccc3)CC2)CCOC2(CCCC2)C1` (centres unmarked) [Example 29, 1-benzyl-4-(9-ethyl-6-oxaspiro[4.5]decan-9-yl)piperazine], the Ki was less than 500 nM. On to `c1ccc(CN2CCN(C3(c4ccccc4)CCOC4(CCCC4)C3)CC2)cc1` (centres unmarked) [Example 32, 1-benzyl-4-(9-phenyl-6-oxaspiro[4.5]decan-9-yl)piperazine], for which the Ki is less than 100 nM. `CC(C)CN1CCN(C2(c3ccccc3)CCOC3(CCCC3)C2)CC1` (centres unmarked) [Example 33, 1-isobutyl-4-(9-phenyl-6-oxaspiro[4.5]decan-9-yl)piperazine] returned a Ki of less than 500 nM. As for `c1ccc(CN2CCN(C3(Cc4ccccc4)CCOC4(CCCC4)C3)CC2)cc1` (centres unmarked) [Example 34, 1-benzyl-4-(9-benzyl-6-oxaspiro[4.5]decan-9-yl)piperazine], the Ki was less than 500 nM. For `CC1(C)CC(c2ccccc2)(N2CCN(Cc3ccccc3)CC2)CCO1` (centres unmarked) [Example 35, 1-benzyl-4-(2,2-dimethyl-4-phenyltetrahydro-2H-pyran-4-yl)piperazine], the Ki was less than 500 nM.
